Values quoted from earlier work as cited in patent publication US10842739B2, “Biodegradable alpha-2 agonist polymeric implants and therapeutic uses thereof” (Allergan, Inc., priority 2008, dated 2020).
Where two headings read alike, the source gives them in different places.

Structure (SMILES): Brc1c(NC2=NCCN2)ccc2nccnc12 [brimonidine freebase, 5-bromo-6-(2-imidazolidinylideneamino)quinoxaline]
- water solubility (in words): negligible
- water solubility (in words) (listed as Brimonidine free base): poorly water soluble
- water solubility (in words) (listed as brimonidine free base): not water soluble
